Results published in patent US10111901B2, “Beta-glucan in combination with anti-cancer agents affecting the tumor microenvironment” (Biothera, Inc., priority 2014, dated 2018).

Columns and labels:
Format in all cases: cell-based, human
M2 macrophages = test: Flow cytometry of M1/M2-specific markers on M2 macrophages derived from vehicle- or β-glucan-treated whole blood
Method: CD14^+ monocytes from human whole blood were enriched using Ficoll gradient and magnetic bead separation. Enriched monocytes (5×10^5 cells per mL) were then cultured in either M1-polarizing (XVivo 10 media (Lonza Group) supplemented with 5% autologous serum and 100 ng/mL recombinant human granulocyte macrophage colony-stimulating factor (rhGM-CSF) (R&D Systems) or M2-polarizing (XVivo 10 media supplemented with 10% autologous serum and 50 ng/mL recombinant human macrophage colony-stimulating factor (rhM-CSF) (R&D Systems) conditions for 6 days. In experiments performed to evaluate the effect of β-glucan, whole blood was first incubated with vehicle (sodium citrate buffer) or 25 μg/mL soluble β-glucan for 2 hours at 37° C. and then the monocytes were isolated and differentiated. Morphology was checked before macrophages were harvested for phenotypic analysis. Culture medium of the day 6 macrophage culture (MCM) was collected, spun down to remove contaminated cell pellet and then frozen down for subsequent cytokine analysis by ELISA or used to setup a co-culture with CD3 & CD28-stimulated CD4 T cells (MCM-CD4 T) for evaluation of either surface markers or CD4 T cell proliferation. The macrophages were used to setup a co-culture with CD3 & CD28- or CD3 only-stimulated CD4 T cells (Mac-CD4 T) on day 6 for evaluation of either surface marker modulation or effect on CD4 T cell proliferation. For Mac-CD4 T cell proliferation study, M1 or M2 macrophages were cultured with CD3 & CD28- or CD3 only-stimulated, CFSE-labeled, autologous CD4 T cells at a 1:10 ratio. T cell proliferation was measured at the end of the experiment (day 9-day 11) by flow cytometry, and results are graphically shown as CFSE-dilution peaks. The assessment of CD3-only stimulated T cells was always done on day 11. Quantitative results were reported as the Division Index (the average number of cell divisions a population underwent) calculated for each of the triplicate wells in each of the culture conditions. Culture supernatants of Mac-CD4 T co-cultures were collected for subsequent cytokine analysis.
M1 and M2 macrophages from vehicle- or β-glucan-treated whole blood were prepared as described above. […] In addition, surface expression of CD86 was enhanced as well as both protein and mRNA levels of PD-L1 (FIG. 2B).
Expression of a panel of markers was evaluated by flow cytometry for vehicle- and β-glucan-treated, high binder-derived M1 and M2 macrophages (CD163 was evaluated twice).
CD163 and CD86 were evaluated by flow cytometry for vehicle- and β-glucan-treated, low binder-derived M1 and M2 macrophages.
Phenotypic and functional evaluation of β-glucan-treated M2a and β-glucan-treated M2 macrophages in the presence of immunosuppressive cytokines was carried out. M2 or M2a macrophages were prepared as described above. On day 3, tumor-conditioned medium (TCM) was added M2 macrophage cultures to account for 70% of the volume of the culture and then evaluated for CD163 expression and functional activity on day 6. […] M2a macrophages were cultured in IL-4 as described above.
The β-glucan-treated M2a macrophages cultured in IL-4 and M2 macrophages cultured in TCM were first evaluated for CD163 and CD86 expression. CD163 and CD86 were evaluated by flow cytometry and median MFI was calculated for isotype control staining and surface antigen staining and the results are shown in Table 5.
Monocytes or M2 macrophages were prepared as described above. On day 3, TCM was added to account for 70% of the volume of the culture and then evaluated for PD-L1 expression with TCM and then again when co-cultured with CD4 T cells.

Tregs (CD4+CD25+) = test: Treg suppression assay
Method: Since these PBMC cultures contain Tregs, the suppressive ability of Tregs seem to be altered in the presence of soluble β-glucan and studies were carried out to determine if β-glucan affected Treg suppression. Plasma from β-glucan-treated or vehicle-treated whole blood (described above) was added to 25,000 isolated CFSE-labeled autologous CD4 T cells (CD4^+CD25^−) along with increasing numbers of isolated autologous Tregs (CD4^+CD25^+) resulting in wells with increasing ratios. Cells were then stimulated with 50,000 T cell activating CD3/28 beads for 3 days. Proliferation was subsequently measured by CFSE dilution and quantified by Division Index, which was used to calculate the % suppression of Tregs in the co-culture. % suppression=100−(Division Index of Treg well/Division Index of 1:0 well)[…].
The Treg suppression assay was conducted as described above, and after 3 days of co-culture, supernatants were analyzed for IFN-gamma production.

CD4 and CD8 T cells = test: Allogeneic mixed lymphocyte reaction (allo-MLR) with mMoDC
CD33+CD11b+ cells (MDSC) = test: Suppression of T cell proliferation by cord blood-derived MDSC; conditions: 2:1 ratio of CD8 T cells to MDSCs, vs citrate buffer
Method: In another study, human cord blood was enriched for CD34^+ cells and cultured for 9 days to produce CD33^+CD11b^+ cells (MDSC). The MDSC were then treated with soluble β-glucan or citrate buffer (control) and evaluated for their ability to suppress T cell proliferation. The T cell proliferation assay was carried out at a 2:1 ratio of CD8 T cells to treated or untreated MDSCs.

[1] = M2 macrophages cultured in TCM (70% of volume, from day 3), immunosuppressive conditions
[2] = M2 macrophages, high binder, 25 μg/mL

β(1,6)-[poly-(1,3)-D-glucopyranosyl]-poly-β(1,3)-D-glucopyranose [β-glucan]
CD86 median MFI (M2 macrophages; [1]): 2697 | CD163 median MFI (M2 macrophages; [1]): 1112 | CD86 median MFI (M2 macrophages; [2]): 2953 | CD163 (1) median MFI (M2 macrophages; [2]): 759 | CD163 (2) median MFI (M2 macrophages; [2]): 1153 | CD206 median MFI (M2 macrophages; [2]): 1056 | CD209 median MFI (M2 macrophages; [2]): 801 | CD274 (PD-L1) median MFI (M2 macrophages; [2]): 4427 | HLA-DR median MFI (M2 macrophages; [2]): 1007 | CD86 median MFI (M2 macrophages; M2 macrophages, low binder): 2284 | CD163 median MFI (M2 macrophages; M2 macrophages, low binder): 3315 | phenotypic markers on monocyte-derived macrophages (M2 macrophages; low binders, M1/M2 polarizing conditions (data not shown)): did not modulate | surface expression of CD86 (M2 macrophages; β-glucan-treated M2 macrophages): enhanced | surface expression of PD-L1 (M2 macrophages; β-glucan-treated M2 macrophages cultured in TCM): higher surface expression | HLA-DR expression (M2 macrophages; β-glucan-treated M2 macrophages cultured in TCM (data not shown)): higher | PD-L1 expression (M2 macrophages; β-glucan-treated M2 macrophages in TCM co-cultured with CD4 T cells): increased expression | mean fluorescence intensity (MFI) of CD163 (M2 macrophages; β-glucan-treated M2 macrophages, FIG. 2A): downmodulated | protein and mRNA levels of PD-L1 (M2 macrophages; β-glucan-treated M2 macrophages, FIG. 2B): enhanced | IFN-gamma production (Tregs (CD4+CD25+); Treg suppression assay, 3 days, 8:1 T cell to Treg ratio): enhanced IFN-gamma production | suppressive capacity of Tregs (Tregs (CD4+CD25+); plasma from β-glucan-treated whole blood vs vehicle-treated): significant decreases | immunogenicity in allo-MLR (CD4 and CD8 T cell expansion) (CD4 and CD8 T cells; β-glucan-treated mMoDC from high binders): increased immunogenicity | IFN-γ production (CD4 and CD8 T cells; β-glucan-treated mMoDC from high binders vs low binders and vehicle-treated mMoDCs): able to modulate IFN-γ production | suppression of T cell proliferation by MDSC (CD33+CD11b+ cells (MDSC)): less suppressive
